According to US20140348819A1, “Methods of Treating Cancer” (Dana-Farber Cancer Institute, Inc., priority 2011, published 2014):

How the values were obtained:
[1] = tested on: pERK/pAKT; assay: High-throughput western analysis of pERK/pAKT re-activation by RTK ligands under BRAFi/MEKi; type: cell-based, human; details: under BRAFi (PLX4720); after 1 hour of cytokine treatment; six V600E BRAF melanoma cell lines
Protocol: FIG. 23B is a western blot showing the activation of AKT (phosphorylated AKT, S473) after 1 hour and 24 hours after treatment with HGF, IGF-1 (IGF), and Insulin (INS) in the presence of BRAFi (PLX4720, 2 μM). FIG. 23C is a western blot showing the effect of HGF (25 ng/mL) on MAPK and PI3K/AKT pathway activation (pRAF1, pMEK, pERK, pAKT and pMET) in melanoma cell lines after 24 hours of treatment with 2 μM BRAFi (PLX4720) or 2 μM MEKi (PD184352).
To understand why, of all the RTKs tested, only HGF could induce such a unique primary resistance phenotype, a high-throughput western analysis was used to test the ability of all 22 RTK ligands to re-activate pERK/pAKT under BRAFi (PLX4720) treatment in six V600E BRAF melanoma cell lines. […] However, whereas the activation of both ERK and AKT by HGF under PLX4720 treatment was long lasting, the activation of either ERK or AKT by the above cytokines was only transient and thus could not confer resistance to the melanoma cell lines.

[2] = tested on: six V600E BRAF melanoma cell lines; assay: Screening of recombinant RTK ligands for ability to confer resistance to BRAFi (PLX4720) or MEKi (PD184352) (Table 4); type: cell-based, human; design: ability of recombinant RTK ligand to confer resistance / ability of recombinant RTK ligand to confer resistance (screening value): scale not given here
Summary of the method: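 Six V600E BRAF melanoma lines treated with PLX4720 or PD184352 after addition of 22 recombinant RTK ligands, scored for drug resistance. Activation of selected RTKs confirmed by western blotting and high-throughput tyrosine kinase phosphorylation profiling.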

PDGF-BB: RTK ligand of PDGFRB
re-activation of pERK/pAKT [1]: reactivate only ERK | ability of recombinant RTK ligand to confer resistance ([2]; A2058, PD184352 - 1 uM, ligand 0.4 ng/ml): 1.07 | ability of recombinant RTK ligand to confer resistance ([2]; A2058, PD184352 - 1 uM, ligand 1.6 ng/ml): 0.98 | ability of recombinant RTK ligand to confer resistance ([2]; A2058, PD184352 - 1 uM, ligand 6.25 ng/ml): 1.10 | ability of recombinant RTK ligand to confer resistance ([2]; A2058, PD184352 - 1 uM, ligand 25 ng/ml): 1.09 | ability of recombinant RTK ligand to confer resistance ([2]; A2058, PD184352 - 1 uM, ligand 100 ng/ml): 1.02 | ability of recombinant RTK ligand to confer resistance ([2]; A2058, PLX4720 - 2 uM, ligand 0.4 ng/ml): 1.07 | ability of recombinant RTK ligand to confer resistance ([2]; A2058, PLX4720 - 2 uM, ligand 1.6 ng/ml): 0.98 | ability of recombinant RTK ligand to confer resistance ([2]; A2058, PLX4720 - 2 uM, ligand 6.25 ng/ml): 1.07 | ability of recombinant RTK ligand to confer resistance ([2]; A2058, PLX4720 - 2 uM, ligand 25 ng/ml): 1.12 | ability of recombinant RTK ligand to confer resistance ([2]; A2058, PLX4720 - 2 uM, ligand 100 ng/ml): 1.07 | ability of recombinant RTK ligand to confer resistance ([2]; C32, PD184352 - 1 uM, ligand 0.4 ng/ml): 1.06 | ability of recombinant RTK ligand to confer resistance ([2]; C32, PD184352 - 1 uM, ligand 1.6 ng/ml): 0.97 | ability of recombinant RTK ligand to confer resistance ([2]; C32, PD184352 - 1 uM, ligand 6.25 ng/ml): 1.08 | ability of recombinant RTK ligand to confer resistance ([2]; C32, PD184352 - 1 uM, ligand 25 ng/ml): 1.10 | ability of recombinant RTK ligand to confer resistance ([2]; C32, PD184352 - 1 uM, ligand 100 ng/ml): 0.96 | ability of recombinant RTK ligand to confer resistance ([2]; C32, PLX4720 - 2 uM, ligand 0.4 ng/ml): 0.96 | ability of recombinant RTK ligand to confer resistance ([2]; C32, PLX4720 - 2 uM, ligand 1.6 ng/ml): 0.97 | ability of recombinant RTK ligand to confer resistance ([2]; C32, PLX4720 - 2 uM, ligand 6.25 ng/ml): 1.04 | ability of recombinant RTK ligand to confer resistance ([2]; C32, PLX4720 - 2 uM, ligand 25 ng/ml): 0.97 | ability of recombinant RTK ligand to confer resistance ([2]; C32, PLX4720 - 2 uM, ligand 100 ng/ml): 0.89 | ability of recombinant RTK ligand to confer resistance ([2]; Colo 829, PD184352 - 1 uM, ligand 0.4 ng/ml): 1.04 | ability of recombinant RTK ligand to confer resistance ([2]; Colo 829, PD184352 - 1 uM, ligand 1.6 ng/ml): 1.06 | ability of recombinant RTK ligand to confer resistance ([2]; Colo 829, PD184352 - 1 uM, ligand 6.25 ng/ml): 1.10 | ability of recombinant RTK ligand to confer resistance ([2]; Colo 829, PD184352 - 1 uM, ligand 25 ng/ml): 1.09 | ability of recombinant RTK ligand to confer resistance ([2]; Colo 829, PD184352 - 1 uM, ligand 100 ng/ml): 0.98 | ability of recombinant RTK ligand to confer resistance ([2]; Colo 829, PLX4720 - 2 uM, ligand 0.4 ng/ml): 1.01 | ability of recombinant RTK ligand to confer resistance ([2]; Colo 829, PLX4720 - 2 uM, ligand 1.6 ng/ml): 1.03 | ability of recombinant RTK ligand to confer resistance ([2]; Colo 829, PLX4720 - 2 uM, ligand 6.25 ng/ml): 1.06 | ability of recombinant RTK ligand to confer resistance ([2]; Colo 829, PLX4720 - 2 uM, ligand 25 ng/ml): 1.06 | ability of recombinant RTK ligand to confer resistance ([2]; Colo 829, PLX4720 - 2 uM, ligand 100 ng/ml): 1.01 | ability of recombinant RTK ligand to confer resistance ([2]; G-361, PD184352 - 1 uM, ligand 0.4 ng/ml): 1.00 | ability of recombinant RTK ligand to confer resistance ([2]; G-361, PD184352 - 1 uM, ligand 1.6 ng/ml): 0.89 | ability of recombinant RTK ligand to confer resistance ([2]; G-361, PD184352 - 1 uM, ligand 6.25 ng/ml): 0.99 | ability of recombinant RTK ligand to confer resistance ([2]; G-361, PD184352 - 1 uM, ligand 25 ng/ml): 0.98 | ability of recombinant RTK ligand to confer resistance ([2]; G-361, PD184352 - 1 uM, ligand 100 ng/ml): 0.96 | ability of recombinant RTK ligand to confer resistance ([2]; G-361, PLX4720 - 2 uM, ligand 0.4 ng/ml): 0.93 | ability of recombinant RTK ligand to confer resistance ([2]; G-361, PLX4720 - 2 uM, ligand 1.6 ng/ml): 0.90 | ability of recombinant RTK ligand to confer resistance ([2]; G-361, PLX4720 - 2 uM, ligand 6.25 ng/ml): 0.98 | ability of recombinant RTK ligand to confer resistance ([2]; G-361, PLX4720 - 2 uM, ligand 25 ng/ml): 1.00 | ability of recombinant RTK ligand to confer resistance ([2]; G-361, PLX4720 - 2 uM, ligand 100 ng/ml): 1.00 | ability of recombinant RTK ligand to confer resistance ([2]; SK-MEL-5, PD184352 - 1 uM, ligand 0.4 ng/ml): 1.03 | ability of recombinant RTK ligand to confer resistance ([2]; SK-MEL-5, PD184352 - 1 uM, ligand 1.6 ng/ml): 1.08 | ability of recombinant RTK ligand to confer resistance ([2]; SK-MEL-5, PD184352 - 1 uM, ligand 6.25 ng/ml): 1.04 | ability of recombinant RTK ligand to confer resistance ([2]; SK-MEL-5, PD184352 - 1 uM, ligand 25 ng/ml): 1.15 | ability of recombinant RTK ligand to confer resistance ([2]; SK-MEL-5, PD184352 - 1 uM, ligand 100 ng/ml): 1.16 | ability of recombinant RTK ligand to confer resistance ([2]; SK-MEL-5, PLX4720 - 2 uM, ligand 0.4 ng/ml): 0.87 | ability of recombinant RTK ligand to confer resistance ([2]; SK-MEL-5, PLX4720 - 2 uM, ligand 1.6 ng/ml): 0.98 | ability of recombinant RTK ligand to confer resistance ([2]; SK-MEL-5, PLX4720 - 2 uM, ligand 6.25 ng/ml): 1.02 | ability of recombinant RTK ligand to confer resistance ([2]; SK-MEL-5, PLX4720 - 2 uM, ligand 25 ng/ml): 1.16 | ability of recombinant RTK ligand to confer resistance ([2]; SK-MEL-5, PLX4720 - 2 uM, ligand 100 ng/ml): 1.31 | ability of recombinant RTK ligand to confer resistance ([2]; SK-MEL-28, PD184352 - 1 uM, ligand 0.4 ng/ml): 1.10 | ability of recombinant RTK ligand to confer resistance ([2]; SK-MEL-28, PD184352 - 1 uM, ligand 1.6 ng/ml): 1.02 | ability of recombinant RTK ligand to confer resistance ([2]; SK-MEL-28, PD184352 - 1 uM, ligand 6.25 ng/ml): 1.05 | ability of recombinant RTK ligand to confer resistance ([2]; SK-MEL-28, PD184352 - 1 uM, ligand 25 ng/ml): 0.99 | ability of recombinant RTK ligand to confer resistance ([2]; SK-MEL-28, PD184352 - 1 uM, ligand 100 ng/ml): 1.03 | ability of recombinant RTK ligand to confer resistance ([2]; SK-MEL-28, PLX4720 - 2 uM, ligand 0.4 ng/ml): 1.03 | ability of recombinant RTK ligand to confer resistance ([2]; SK-MEL-28, PLX4720 - 2 uM, ligand 1.6 ng/ml): 1.10 | ability of recombinant RTK ligand to confer resistance ([2]; SK-MEL-28, PLX4720 - 2 uM, ligand 6.25 ng/ml): 1.16 | ability of recombinant RTK ligand to confer resistance ([2]; SK-MEL-28, PLX4720 - 2 uM, ligand 25 ng/ml): 10.5 | ability of recombinant RTK ligand to confer resistance ([2]; SK-MEL-28, PLX4720 - 2 uM, ligand 100 ng/ml): 1.13 | ability of RTK ligand to confer primary resistance ([2]; six V600E BRAF melanoma cell lines, BRAFi (PLX4720) or MEKi (PD184352)): not shown to induce primary resistance
